Test [1] is described as follows: blockers of dynein-driven microtubule transport – imaging, high-content imaging, dose response (AID 463136).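 Note: mouse mammary adenocarcinoma 3617.4 cells expressing GFP-tagged rat glucocorticoid receptor.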 As to conditions: HCS imaging, dynein-mediated cargo transport inhibition; inhibition at max concentration; at 50 µM; stronger effect = higher value.
Test [2] relates to HCS imaging, dynein-mediated cargo transport inhibition. Described as above.

Inconclusive results are not listed. Calls of active or inactive are those of the source. The rule behind the calls is not given here. A value given as a limit tells only on which side of the number the result lay.

As usually defined, the inhibition is the drop in the measured response relative to a control, in per cent. As usually defined, the IC50 is the concentration at which inhibition is half-maximal. For `Cc1ccccc1NC(=O)COC(=O)c1ccc(S(C)(=O)=O)c([N+](=O)[O-])c1`, the inhibition in test [1] worked out at 81.2%. Besides, the IC50 in test [2] was 31.8 µM.
The corresponding values for `CC(C)Cn1c([N+](=O)[O-])nc2c1c(=O)[nH]c(=O)n2C` are 83.8% and 5.26 µM.
For `CCOc1cc(C=C(C(=O)OC)C(=O)OC)ccc1OCc1ccc([N+](=O)[O-])cc1` the same measures were 37.2% and > 50 µM (inactive).
For `CC(=O)N1/C(=C/c2ccc(N(C)C)cc2)C(=O)c2ccccc21` the same measures were 78.9% and 29.9 µM.
For the molecule `N#CC(C#N)=C1C=CC=CN1/C(=C\c1ccco1)C(=O)c1ccccc1`, the inhibition in test [1] is 19.2%. The IC50 in test [2] is > 50 µM (inactive).
For `Cc1cc(C(=O)CCl)c(C)n1Cc1ccco1` the same measures were 85.7% and 13.5 µM.
For the molecule `Cc1cc(-n2c(C)cc(C(=O)CCl)c2C)no1`, the inhibition in test [1] turned out to be 67.7%. For the same molecule, in test [2], the IC50 was 9.45 µM.
The corresponding values for `O=Cc1s/c(=N\S(=O)(=O)c2ccccc2)n(CCCCl)c1Cl` are 68.2% and 33.2 µM.
Consider `O=[N+]([O-])c1ccc(/C=C/C2=NN(c3ccccc3)C(c3ccco3)C2)o1` (stereo not drawn), for which the inhibition in test [1] was found to be 37.1%. The IC50 in test [2] was > 50 µM (inactive).
The corresponding values for `COC(=O)c1cc(=O)n(Cc2ccc3c(c2)OCO3)c(=Nc2ccc(F)c(Cl)c2)s1` are 8.81% and > 50 µM (inactive).
For `CCCCNC1C(CC)C(CCC)C(C#N)(C#N)C1(C#N)C#N` (stereo not drawn) the same measures were 75.2% and 21.7 µM.
For `CC(=O)Oc1ccc(OC(C)=O)c(SCCCCCCl)c1` the same measures were 83.5% and 17.6 µM.
Consider `CCc1ccccc1NC(=O)CN(C)C(=O)Cn1ncc(Cl)c(Cl)c1=O`, for which the inhibition in test [1] came to 81.8%. For the same molecule, the IC50 in test [2] was 7.32 µM.
For `Cc1cccc(N(Cc2ccccc2)C(=O)CCl)c1` the same measures were 63.4% and 11.9 µM.
The corresponding values for `COC(CN(C(=O)CCl)C(C(=O)NC1CCCCC1)c1ccc(Cl)cc1)OC` (stereo not drawn) are 82.6% and 22.6 µM.
For `O=C(/C=C/c1ccccn1)c1cc(Br)ccc1O` the same measures were 69.4% and 28.3 µM.
In the case of `Cc1nnc(NC(=O)c2sc3nc(-c4cccs4)cc(C(F)(F)F)c3c2N)s1`, in test [1], the inhibition came to 154%. For the same molecule, the IC50 in test [2] is 2.21 µM.
The corresponding values for `N#C/C(=C\c1cccc([N+](=O)[O-])c1)C(=O)NCc1ccc(Cl)cc1` are 13.8% and > 50 µM (inactive).
For `O=C(c1ccccc1)c1ccccc1N1C(=O)C=CC1=O` the same measures were 7.43% and > 50 µM (inactive).
For `O=C(/C=C/c1cccc([N+](=O)[O-])c1)n1cnc2ccccc21` the same measures were 85.7% and 17.3 µM.
`O=C(CCl)Nc1cccc(Oc2ccccc2)c1`: the inhibition in test [1] was 56.5%. Further, the IC50 in test [2] was 38.8 µM.
The corresponding values for `CCCn1nc(-c2ccccc2)c2nc3ccccc3nc21` are -0.033% and > 50 µM (inactive).
The corresponding values for `COC(CNC(=O)c1ccc2c3c(onc13)-c1ccccc1C2=O)OC` are 99.6% and 29.3 µM.
The corresponding values for `C=C1C(=O)[C@@]23[C@H](O)C[C@@H]4C(C)(C)CC[C@H](O)[C@@]4(C)[C@@H]2CC[C@@H]1[C@H]3O` are 87.3% and 6.12 µM.
`CCOc1ccc2noc3c2c1C(=O)c1ccccc1-3`: the inhibition in test [1] came to 99.2%. Further, the IC50 in test [2] was 11 µM.
The corresponding values for `CCOC(=O)c1c(NC(=O)CCl)sc(CN(C)C)c1-c1ccccc1` are 74.1% and 29.9 µM.
The corresponding values for `Cc1[nH]c2ccccc2c1/C=N/Nc1ccc([N+](=O)[O-])cc1S(=O)(=O)Nc1ccc(Cl)cc1` are 112% and 22.8 µM.
For `Cc1ccc(/C=C2\CCC3=C2OC(N)=C(C#N)C3c2ccc(C)cc2)cc1` (stereo not drawn) the same measures were 111% and 3.23 µM.
`CN1C(=O)NC(=O)/C(=C/c2ccc([N+](=O)[O-])s2)C1=O`: the inhibition in test [1] is 84.7%. For the same molecule, in test [2], the IC50 was 12 µM.
For `CN(C)CCCN(C(=O)CCOc1ccccc1)c1nc2c(F)cccc2s1` the same measures were 30.5% and > 50 µM (inactive).
For `Nc1c(C(=O)C2CC2)sc2nc(-c3ccccc3)cc(C(F)(F)F)c12` the same measures were 134% and 31.2 µM.
`O=C(CCl)N(c1ccccc1)c1ccccc1`: the inhibition in test [1] is 61.3%. The IC50 in test [2] is 14.2 µM.
The corresponding values for `Cc1cc(N2CCCC2)c(F)cc1/C=C\[N+](=O)[O-]` are 126% and 25.2 µM.
Take `O=C(c1ccccc1)c1cc(Cl)ccc1N1C(=O)C=CC1=O`: in test [1], the inhibition was found to be 12%. The IC50 in test [2] is > 50 µM (inactive).

These data come from PubChem BioAssay AID463136 (University of Pittsburgh Molecular Library Screening Center, 2010).
